Test results: ChEMBL document CHEMBL2146441, “2,6-Disubstituted imidazo[2,1-b][1,3,4]thiadiazoles: search for anticancer agents” (2012)

System: SK-MEL-5
Assay: Growth inhibition of human SK-MEL-5 cells at 10^-5 M after 48 hrs by SRB assay
Assay type: functional
Set-up: scale not given: the % may be the effect or the level left

`COc1ccc(-c2nn3cc(-c4cccc(N)c4)nc3s2)cc1` was tested, and the Activity was 1%.
